Source: patent publication US10059694B2, “2-aminopyrimidine compound and pharmaceutical composition and use thereof” (Shanghai Institute of Materia Medica, Chinese Academy of …, priority 2014, dated 2018)
Where two headings read alike, the source gives them in different places.

Columns and labels:
IGF-1R = biological target: T1, IGF-1R (Homo sapiens, UniProt P08069); assay: kinase inhibitory activity test (ELISA), IGF-1R; type: biochemical; settings: ATP 5 μM, 1 hour at 37° C.
T1 construct: purchased Millipore
Protocol: (§1) The enzyme substrate poly (glutamic acid, tyrosine)4:1 (Sigma) was diluted with potassium-free PBS (10 mM sodium phosphate buffer, 150 mM NaCl, pH 7.2-7.4) to 20 μg/mL, plate coated with 125 μL/well, reacted for 12-16 hours at 37° C. After the liquid in the wells was discarded, the plates were washed three times with 200 μL/well of T-PBS (PBS containing 0.1% Tween-20), and each time for 5 minutes, and then dried for 1-2 hours in an oven at 37° C. 50 μL of ATP solution diluted with reaction buffer (50 mM HEPES pH 7.4, 50 mM MgCl2, 5 mM MnCl2, 0.2 mM Na3VO4, 1 mM DTT) was added into each well and the final concentration was 5 μM. The compounds were diluted with 1% DMSO to suitable concentrations and were added at 10 μL/well. Then different types of tyrosine kinase proteins (including EGFR^wt, EGFR^T790M/L858R and IGF-1R, purchased from Millipore) diluted with 40 μL of reaction buffer were added. The above reaction system was reacted for 1 hour at 37° C. shaking table (100 rpm). Control wells with no enzyme and control wells with DMSO solvent were set in each experiment. After the reaction was completed, the plates were washed three times with T-PBS. The anti-phosphotyrosine primary antibody PY99 (Santa Cruz) was added at 100 μL/well and the antibody was diluted with T-PBS containing BSA 5 mg/mL by 1:1000. The mixture was reacted for 0.5 h at 37° C. shaking table, the plates were washed three times with T-PBS. The secondary antibody which was horseradish peroxidase-labeled goat anti-mouse IgG was added at 100 μL/well (the antibody was diluted with T-PBS containing BSA 5 mg/mL by 1:2000). The mixture was reacted for 0.5 h at 37° C. shaking table, the plates were washed three times with T-PBS. 2 l/mL of OPD coloring solution was added at 100 μL/well (diluted with 0.1 M citric acid-sodium citrate buffer (pH=5.4) containing 0.03% H2O2) and dark reacted for 1 to 10 minutes at 25° C. 2 M H2SO4 was added at 50 μL/well to terminate the reaction. Reading was carried out with an adjustable wavelength microplate enzyme-labeled instrument SPECTRA MAX 190 at 490 nm wavelength.
(§2) The IC50 value was calculated by the four-parameter fitting of the suppression curve.

EGFR^wt = biological target: T2, EGFR^wt (Homo sapiens, UniProt P00533); assay: kinase inhibitory activity test (ELISA), EGFR^WT; type: biochemical; settings: ATP 5 μM, 1 hour at 37° C.
T2 construct: purchased Millipore
Protocol: as §1, with “Then different types of tyrosine kinase proteins (including EGFR^wt, EGFR^T790M/L858R and IGF-1R, purchased from Millipore) diluted with 40 μL of reaction buffer were added.” left out
as §2

EGFR^T790M/L858R = biological target: T3, EGFR^T790M/L858R (Homo sapiens, UniProt P00533, L858R/T790M); assay: kinase inhibitory activity test (ELISA), EGFR^T790M/L858R; type: biochemical; settings: for IC50: ELISA, ATP 5 μM, 1 hour at 37° C.; for kinase inhibitory activity (in words): summary of Table 1
T3 construct: purchased Millipore
Protocol: as §1, with “Then different types of tyrosine kinase proteins (including EGFR^wt, EGFR^T790M/L858R and IGF-1R, purchased from Millipore) diluted with 40 μL of reaction buffer were added.” left out
as §2

[1] = test system: human epidermal carcinoma A431 cell line; assay: SRB proliferation assay, A431 cells; type: cell-based; settings: read-out: IC50 A431
Protocol: (§3) Cell lines: human epidermal carcinoma A431 cell line and human non-small cell lung cancer NCI-H1975 cell line was purchased from the American Standard Biology Collection Center (ATCC).
(§4) Methods: sulforhodamine B (SRB) method, which was as follows: certain number of different tumor cells in logarithmic growth phase were inoculated on 96-well culture plates. After cultured for 24 h to cell adherence, different concentrations of the test compounds of the invention were added. Each concentration was provided with three wells, and a corresponding concentration of DMSO solvent control and a cell-free zeroing well were set. After the cells were treated with the medicine for 72 h, the culture medium was discarded and 100 μL of 10% pre-cooled trichloroacetic acid solution was added to fix the cells. After placed for 1 h at 4° C., it was washed for 5 times with distilled water and dried naturally. Then 100 μL SRB (4 mg/mL) (Sigma) solution was added and stained for 15 min at room temperature. The staining solution was discarded and washed for 5 times with 1% glacial acetic acid and dried. Finally, 150 μL of 10 mM Tris solution (pH 10.5) was added and the OD value was measured at 515 nm with adjustable wavelength microplate enzyme-labeled instrument (VERSAmax™, Molecular Device Corporation, Sunnyvale, Calif., USA).

[2] = test system: human non-small cell lung cancer NCI-H1975 cell line; assay: SRB proliferation assay, NCI-H1975 cells; type: cell-based; settings: read-out: IC50 NCI-H1975
Protocol: as §3
as §4, with “USA). […] Based on the inhibitory effect of the 2-aminopyrimidine compounds on the growth of these cells, the half maximal inhibitory concentration (IC50) values were calculated, as shown in Table 2.” for “USA).”

T2 sequence (P00533 25-1210): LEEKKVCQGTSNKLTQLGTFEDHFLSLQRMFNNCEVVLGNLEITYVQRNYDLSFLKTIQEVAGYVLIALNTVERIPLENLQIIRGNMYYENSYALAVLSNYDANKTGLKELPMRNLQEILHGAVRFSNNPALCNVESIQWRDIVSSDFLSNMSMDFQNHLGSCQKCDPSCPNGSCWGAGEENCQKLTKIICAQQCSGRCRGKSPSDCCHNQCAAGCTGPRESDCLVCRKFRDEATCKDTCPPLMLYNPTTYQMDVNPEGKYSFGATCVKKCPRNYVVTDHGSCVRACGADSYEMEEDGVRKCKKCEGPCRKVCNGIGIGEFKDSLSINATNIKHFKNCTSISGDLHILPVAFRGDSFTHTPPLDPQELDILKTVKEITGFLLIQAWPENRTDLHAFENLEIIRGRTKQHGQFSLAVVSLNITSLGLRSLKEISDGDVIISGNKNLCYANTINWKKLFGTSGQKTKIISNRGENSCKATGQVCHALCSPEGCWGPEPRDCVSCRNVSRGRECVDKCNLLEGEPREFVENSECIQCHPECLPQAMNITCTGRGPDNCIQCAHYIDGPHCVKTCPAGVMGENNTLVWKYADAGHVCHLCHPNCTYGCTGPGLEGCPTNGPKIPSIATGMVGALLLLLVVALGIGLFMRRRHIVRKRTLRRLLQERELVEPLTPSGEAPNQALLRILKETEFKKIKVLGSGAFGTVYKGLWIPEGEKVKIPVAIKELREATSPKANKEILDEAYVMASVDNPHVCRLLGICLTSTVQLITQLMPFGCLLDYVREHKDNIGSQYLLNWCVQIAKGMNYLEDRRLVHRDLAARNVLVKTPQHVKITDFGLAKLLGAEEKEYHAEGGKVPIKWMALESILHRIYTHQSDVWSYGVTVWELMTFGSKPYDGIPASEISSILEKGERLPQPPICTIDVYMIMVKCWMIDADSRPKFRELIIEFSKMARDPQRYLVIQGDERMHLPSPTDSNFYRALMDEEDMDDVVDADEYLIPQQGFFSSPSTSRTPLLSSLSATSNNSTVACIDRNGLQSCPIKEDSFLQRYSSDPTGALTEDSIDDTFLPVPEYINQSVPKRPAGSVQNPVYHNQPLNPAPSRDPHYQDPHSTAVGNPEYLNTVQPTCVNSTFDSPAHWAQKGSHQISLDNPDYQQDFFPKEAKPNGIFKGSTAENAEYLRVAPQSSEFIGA
T3 sequence (P00533 25-1210 T790M/L858R): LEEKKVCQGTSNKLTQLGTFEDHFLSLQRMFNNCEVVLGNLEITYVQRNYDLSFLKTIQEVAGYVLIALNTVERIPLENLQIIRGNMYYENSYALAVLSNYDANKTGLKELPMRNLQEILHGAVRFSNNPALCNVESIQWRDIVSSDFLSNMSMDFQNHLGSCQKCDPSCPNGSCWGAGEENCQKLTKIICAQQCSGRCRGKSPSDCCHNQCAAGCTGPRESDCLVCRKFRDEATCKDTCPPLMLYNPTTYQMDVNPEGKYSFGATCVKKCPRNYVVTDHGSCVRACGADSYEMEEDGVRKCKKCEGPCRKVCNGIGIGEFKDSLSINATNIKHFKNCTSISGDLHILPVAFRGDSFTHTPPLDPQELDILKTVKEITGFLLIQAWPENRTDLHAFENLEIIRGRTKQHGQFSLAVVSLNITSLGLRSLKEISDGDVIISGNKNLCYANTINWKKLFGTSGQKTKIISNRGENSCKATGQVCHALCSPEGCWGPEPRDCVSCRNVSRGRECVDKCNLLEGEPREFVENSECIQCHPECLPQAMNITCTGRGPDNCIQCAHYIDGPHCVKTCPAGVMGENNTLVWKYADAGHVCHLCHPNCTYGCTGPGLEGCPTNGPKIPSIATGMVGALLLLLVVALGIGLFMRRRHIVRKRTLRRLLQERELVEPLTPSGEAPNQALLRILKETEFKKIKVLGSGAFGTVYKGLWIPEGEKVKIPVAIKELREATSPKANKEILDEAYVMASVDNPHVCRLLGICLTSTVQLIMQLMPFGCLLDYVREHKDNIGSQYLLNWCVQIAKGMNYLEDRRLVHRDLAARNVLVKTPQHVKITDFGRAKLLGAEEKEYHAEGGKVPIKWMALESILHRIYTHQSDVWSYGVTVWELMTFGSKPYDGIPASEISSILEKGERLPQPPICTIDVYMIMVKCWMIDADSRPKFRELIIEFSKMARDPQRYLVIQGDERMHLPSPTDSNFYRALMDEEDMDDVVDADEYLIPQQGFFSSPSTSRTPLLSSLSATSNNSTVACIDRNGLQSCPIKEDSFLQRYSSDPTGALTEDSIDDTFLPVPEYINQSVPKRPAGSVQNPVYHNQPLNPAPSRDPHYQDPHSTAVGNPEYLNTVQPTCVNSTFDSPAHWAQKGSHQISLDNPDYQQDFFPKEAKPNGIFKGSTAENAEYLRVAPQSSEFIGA
T1 sequence (P08069 31-1367): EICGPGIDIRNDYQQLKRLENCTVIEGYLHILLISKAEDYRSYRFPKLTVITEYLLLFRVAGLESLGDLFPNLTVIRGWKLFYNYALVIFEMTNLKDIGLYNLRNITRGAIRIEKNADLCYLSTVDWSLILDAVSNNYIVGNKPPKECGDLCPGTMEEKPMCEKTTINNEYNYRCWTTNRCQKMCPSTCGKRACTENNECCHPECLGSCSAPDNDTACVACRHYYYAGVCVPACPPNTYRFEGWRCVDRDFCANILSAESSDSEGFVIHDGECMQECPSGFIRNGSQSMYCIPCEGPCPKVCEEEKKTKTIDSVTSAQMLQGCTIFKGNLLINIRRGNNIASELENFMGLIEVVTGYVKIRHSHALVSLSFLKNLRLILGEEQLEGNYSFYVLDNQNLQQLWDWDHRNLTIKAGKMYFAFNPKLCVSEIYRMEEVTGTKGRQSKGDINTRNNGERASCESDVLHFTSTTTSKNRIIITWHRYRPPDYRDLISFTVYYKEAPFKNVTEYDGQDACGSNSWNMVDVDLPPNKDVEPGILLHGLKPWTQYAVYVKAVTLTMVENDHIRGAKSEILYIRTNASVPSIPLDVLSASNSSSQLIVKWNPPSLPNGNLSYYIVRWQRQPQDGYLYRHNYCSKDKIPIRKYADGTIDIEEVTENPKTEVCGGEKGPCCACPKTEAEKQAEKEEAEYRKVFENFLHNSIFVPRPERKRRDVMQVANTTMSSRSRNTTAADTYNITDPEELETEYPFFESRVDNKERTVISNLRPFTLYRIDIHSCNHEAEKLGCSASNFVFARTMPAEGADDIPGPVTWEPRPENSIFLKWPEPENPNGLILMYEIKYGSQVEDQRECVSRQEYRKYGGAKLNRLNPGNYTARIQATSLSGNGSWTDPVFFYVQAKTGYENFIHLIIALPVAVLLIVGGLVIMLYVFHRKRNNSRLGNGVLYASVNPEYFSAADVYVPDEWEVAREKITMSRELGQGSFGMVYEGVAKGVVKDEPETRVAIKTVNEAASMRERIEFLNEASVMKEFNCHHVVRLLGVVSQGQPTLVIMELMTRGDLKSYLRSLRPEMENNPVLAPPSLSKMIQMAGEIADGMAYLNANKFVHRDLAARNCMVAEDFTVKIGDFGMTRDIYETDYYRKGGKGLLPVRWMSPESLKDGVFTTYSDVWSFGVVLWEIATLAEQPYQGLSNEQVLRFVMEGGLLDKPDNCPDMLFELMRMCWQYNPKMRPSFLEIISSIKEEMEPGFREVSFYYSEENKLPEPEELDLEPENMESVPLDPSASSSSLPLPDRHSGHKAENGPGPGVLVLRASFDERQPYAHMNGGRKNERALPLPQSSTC

Compound	IC50 (IGF-1R)	IC50 (EGFR^wt)	IC50 (EGFR^T790M/L858R)	kinase inhibitory activity (in words) (EGFR^T790M/L858R)	IC50 ([1]; A-431, SRB, 72 h)	IC50 ([2]; NCI-H1975, SRB, 72 h)	IC50 ([1]; A-431, 72 h)	IC50 ([2]; NCI-H1975, 72 h)
C=CC(=O)Nc1cc(Nc2nccc(-c3cn(C)c4ccccc34)n2)c(OC)cc1N(C)CCN(C)C [AZD9291, reference compound]	> 1000 nM	–	–	–	–	–	–	–
COc1ccc(NC(=O)/C=C/CN(C)C)cc1Nc1ncc(Cl)c(Nc2ccc3ccccc3c2)n1 [CCB118563, (E)-N-((3-((5-chloro-4-((naphthalen-2-yl)amino))pyrimidin-2-yl)amino)-4-methoxyphenyl)-4-(dimethylamino)-2-butenamide]	14.7 nM	260 nM	18.2 nM	–	–	–	1130 nM	306 nM
COc1ccc(NC(=O)/C=C/CN2CCOCC2)cc1Nc1ncc(Cl)c(Nc2ccc3ccccc3c2)n1 [CCB120025, (E)-N-((3-((5-chloro-4-((naphthalen-2-yl)amino))pyrimidin-2-yl)amino)-4-methoxyphenyl)-4-(morpholin-1-yl)-2-butenamide]	132 nM	567 nM	11.9 nM	–	–	895 nM	–	–
C=CC(=O)Nc1ccc(OC)c(Nc2ncc(Cl)c(Nc3ccc4ccccc4c3)n2)c1 [CCB120027, N-((3-((5-chloro-4-((naphthalen-2-yl)amino))pyrimidin-2-yl)amino)-4-methoxyphenyl)acrylamide]	263 nM	172 nM	2.2 nM	potent	> 10000 nM	403 nM	–	–
COc1ccc(NC(=O)/C=C/CN2CCN(C(C)=O)CC2)cc1Nc1ncc(Cl)c(Nc2ccc3ccccc3c2)n1 [CCB120029, (E)-N-((3-((5-chloro-4-((naphthalen-2-yl)amino))pyrimidin-2-yl)amino)-4-methoxyphenyl)-4-(4-acetylpiperazin-1-yl)-2-butenamide]	99.4 nM	695 nM	19.1 nM	–	–	1050 nM	–	–
C=CC(=O)Nc1cc(CN(C)C)cc(Nc2ncc(Cl)c(Nc3ccc4ccccc4c3)n2)c1 [CCB120081, N-((3-((5-chloro-4-((naphthalen-2-yl)amino))pyrimidin-2-yl)amino)-5-(dimethylaminomethyl)phenyl)acrylamide]	85.8 nM	170 nM	5.1 nM	–	37 nM	16 nM	–	–
C=CC(=O)Nc1cc(CN2CCOCC2)cc(Nc2ncc(Cl)c(Nc3ccc4ccccc4c3)n2)c1 [CCB120106]	138 nM	> 1000 nM	4.1 nM	–	2000 nM	311 nM	–	–
C=CC(=O)Nc1cccc(Nc2nc(Nc3ccc(N4CCN(C(C)=O)CC4)cc3OC)ncc2C(F)(F)F)c1 [CO1686, reference compound]	1320 nM	–	–	–	972 nM	215 nM	–	–

Second part, led by results:

IC50 (IGF-1R)	IC50 (EGFR^wt)	IC50 (EGFR^T790M/L858R)	kinase inhibitory activity (in words) (EGFR^T790M/L858R)	IC50 ([1]; A-431, SRB, 72 h)	IC50 ([2]; NCI-H1975, SRB, 72 h)	Compound	IC50 ([1]; A-431, 72 h)	IC50 ([2]; NCI-H1975, 72 h)
35.4 nM	318 nM	1.9 nM	potent	6930 nM	319 nM	COc1ccc(NC(=O)/C=C/CN2CCCCC2)cc1Nc1ncc(Cl)c(Nc2ccc3ccccc3c2)n1 [CCB120024, (E)-N-((3-((5-chloro-4-((naphthalen-2-yl)amino))pyrimidin-2-yl)amino)-4-methoxyphenyl)-4-(piperidin-1-yl)-2-butenamide]	–	–
9 nM	132 nM	3.9 nM	potent	535 nM	147 nM	C=CC(=O)Nc1cc(CN(C)CCN(C)C)cc(Nc2ncc(Cl)c(Nc3ccc4ccccc4c3)n2)c1 [CCB120069, N-((3-((5-chloro-4-((naphthalen-2-yl)amino))pyrimidin-2-yl)amino)-5-((N-methyl-N-dimethylaminoethyl)methylamine)phenyl)acrylamide]	–	–
73.3 nM	102 nM	3.1 nM	–	1020 nM	131 nM	C=CC(=O)Nc1cc(CN2CCN(C)CC2)cc(Nc2ncc(Cl)c(Nc3ccc4ccccc4c3)n2)c1 [CCB120103, N-((3-((5-chloro-4-((naphthalene-2-yl)amino))pyrimidine-2-yl)amino)-5-((4-methylpiperazine-1-yl)methyl)phenyl)acrylamide]	–	–
77.3 nM	137 nM	1.2 nM	–	576 nM	151 nM	C=CC(=O)Nc1cc(CN2CCCN(C)CC2)cc(Nc2ncc(Cl)c(Nc3ccc4ccccc4c3)n2)c1 [CCB120105, N-((3-((5-chloro-4-((naphthalen-2-yl)amino))pyrimidin-2-yl)amino)-5-((4-methylhomopiperazin-1-yl)methyl)phenyl)acrylamide]	–	–
7.8 nM	3.1 nM	2.2 nM	–	–	–	C=CC(=O)Nc1cc(Nc2ncc(Cl)c(Nc3ccc4ccccc4c3)n2)c(OC)cc1N(C)CCNC [CCB4580030, N-((5-((5-chloro-4-(naphthalene-2-ylamino)pyrimidine-2-yl)amino)-4-methoxy-2-(methyl(2-methylamino)ethyl)amino)phenyl)acrylamide]	–	–
